Patent US8119614B2, “Substitution derivatives of N6-benzyladenosine, methods of their preparation, their use for preparation of drugs, cosmetic preparations and growth regulators, pharmaceutical preparations, cosmetic preparations and growth regulators containing these compounds” (Ustav Experimentalni Botaniky Akademie Ved Ceske Republiky, priority 2002, dated 2012)

Tests used:
[1] = test system: human erythroleukaemia K562; assay: In vitro cytotoxic activity, Calcein AM assay, K-562; assay type: cell-based; conditions: 72 hours, read-out: IC 50 K-562
From the text: (§1) One of the parameters used, as the basis for cytotoxicity assays, is the metabolic activity of viable cells. For example, a microtiter assay, which uses the Calcein AM, is now widely used to quantitate cell proliferation and cytotoxicity. For instance, this assay is used in drug screening programs and in chemosensitivity testing. Because only metabolically active cells cleave Calcein AM, these assays detect viable cells exclusively. The quantity of reduced Calcein AM corresponds to the number of vital cells in the culture.
(§2) Human T-lymphoblastic leukemia cell line CEM; promyelocytic HL-60 and monocytic U937 leukemias; breast carcinoma cell lines MCF-7; cervical carcinoma cells HELA; mouse fibroblasts NIH3T3; human erythroleukaemia K562 and human malignant melanoma cells G361 were used for routine screening of compounds. The cells were maintained in Nunc/Corning 80 cm^2 plastic tissue culture flasks and cultured in cell culture medium (DMEM with 5 g/l glucose, 2 mM glutamine, 100 U/ml penicillin, 100 μg/ml streptomycin, 10% fetal calf serum and sodium bicarbonate).
(§3) The cell suspensions that were prepared and diluted according to the particular cell type and the expected target cell density (10^4 cells per well based on cell growth characteristics) were added by pipette (80 μl) into 96/well microtiter plates. Inoculates were allowed a pre-incubation period of 24 hours at 37° C. and 5% CO2 for stabilisation. Four-fold dilutions of the intended test concentration were added at time zero in 20 μl aliquots to the microtiter plate wells. Usually, test compound was evaluated at six 4-fold dilutions. In routine testing, the highest well concentration was 166.7 μM, but it can be the matter of change dependent on the agent. All drug concentrations were examined in duplicates. Incubations of cells with the test compounds lasted for 72 hours at 37° C., in 5% CO2 atmosphere and 100% humidity. At the end of incubation period, the cells were assayed by using the Calcein AM. Ten microliters of the stock solution were pipetted into each well and incubated further for 1 hours. Fluorescence (FD) was measured with the Labsystem FIA Reader Fluoroscan Ascent (UK). The tumour cell survival (GI50) was calculated using the following equitation: GI50=(FDdrug exposed well/mean FDcontrol wells)×100%. The GI50 value, the drug concentration lethal to 50% of the tumour cells, was calculated from the obtained dose response curves (FIG. 3).

HOS = assay: In vitro cytotoxic activity, Calcein AM assay, HOS; assay type: cell-based; conditions: 72 hours
promyelocytic HL-60 = assay: In vitro cytotoxic activity, Calcein AM assay, HL60; assay type: cell-based, human; conditions: 72 hours, read-out: IC 50 HL60
From the text: as §1, §2, §3

[2] = test system: breast carcinoma cell lines MCF-7; assay: In vitro cytotoxic activity, Calcein AM assay, MCF7; assay type: cell-based, human; conditions: 72 hours, read-out: IC 50 MCF7
From the text: as §1, §2, §3

[3] = test system: Human T-lymphoblastic leukemia cell line CEM; assay: In vitro cytotoxic activity, Calcein AM assay, CEM; assay type: cell-based; conditions: 72 hours
From the text: as §1, §2, §3

mouse fibroblasts NIH3T3 = assay: In vitro cytotoxic activity, Calcein AM assay, NIH-3T3; assay type: cell-based; conditions: 72 hours, read-out: IC 50 NIH-3T3
From the text: as §1, §2, §3

[4] = test system: Amaranthus caudatus cotyledon/hypocotyl explants; assay: Amaranthus bioassay (betacyanin content); assay type: in vivo; conditions: for Concentration with highest activity: 48 h dark; for Activity (%) [10^−5 mol · l^−1 BAP = 100%]: at concentration with highest activity
Description: Standard Amaranthus bioassay was performed with several modifications. The seeds of Amaranthus caudatus var. atropurpurea were surface-sterilised in 10% N-chlorobenzenesulfonamide (w/v) for 10 min and washed 5 times in deionized water. They were placed in 15 cm Petri dishes containing paper tissues saturated with deionized water. After 72 h of cultivation at 25° C. in darkness, the roots of the seedlings were cut off. The explants, consisting of two cotyledons and hypocotyls, were placed in 5 cm Petri dishes on two layers of filter paper soaked in 1 ml of incubation medium containing 10 μmol NA2HPO4-KH2PO4, pH 6.8, 5 μmol tyrosine and the cytokinin to be tested. There were 20 explants per dish. The procedure was carried out under a green safe light in a darkroom. After a 48 h of incubation at 25° C. in darkness, betacyanin was extracted by freezing the explants in 4 ml […] acetic acid. The concentration of betacyanin was determined by comparing the absorbance at 537 nm and 620 nm as follows: ΔA=[…]-[…]. From the obtained data, the concentration with highest activity was selected for each compound tested. Relative activity of the compound at this concentration was calculated (Tab. 12). […] The values shown in table 8 are means of five replicates and the entire test was repeated twice. The cytokinins to be tested were dissolved in dimethylsulfoxide (DMSO) and the solution brought up to 10^-3M with distilled water. This stock was further diluted in the respective media used for the biotest to concentrations ranging from 10^-8M to 10^-4M. […] From the data obtained (FIG. 14) the maximum effective concentration of the tested compound was calculated as well as its relative effectiveness at this concentration (Table 12). […]

[5] = test system: Triticum aestivum cv. Hereward; assay: Senescence inhibition on winter wheat leaf segments (chlorophyll retention); assay type: in vivo; conditions: for Concentration with highest activity: chlorophyll retention in excised wheat leaf tips, 96 h dark; for Activity (%) [10^−4 mol · l^−1 BAP = 100%]: chlorophyll retention, at concentration with highest activity
Description: Seeds of winter wheat, Triticum aestivum cv. Hereward, were washed under running water for 24 hours and then sown on vermiculite soaked with Knop's solution. They were placed in the grown chamber at 15° C. with a 16/8 h light period at 50 μmol·m^−2·s^−1. After 7 days, the first leaf was fully developed and the second leaf had started to grow. A tip section of the first leaf, approximately 35 mm long, was removed from 5 seedlings and trimmed slightly to a combined weight of 100 mg. The basal ends of the five leaf tips were placed in the wells of a microtiter polystyrene plate containing 150 μl of a cytokinin solution each. The entire plate was inserted into a plastic box lined with paper tissues soaked in distilled water to prevent leaf sections from drying out. After a 96 h incubation in the dark at 25° C., the leaves were removed and chlorophyll extracted by heating at 80° C. for 10 min in 5 ml of 80% ethanol (v/v). The sample volume was then restored to 5 ml by the addition of 80% ethanol (v/v). The absorbency of the extract was recorded at 665 nm. In addition, chlorophyll extracts from fresh leaves and leaf tips incubated in deionised water were measured. From the obtained data, the concentration with highest activity was selected for each compound tested. Relative activity of the compound at this concentration was calculated (Tab. 10). The activity obtained for 10^−4 M 6-benzylaminopurine (BAP) was postulated as 100%. The values shown are means of five replicates and the whole experiment was repeated twice. The cytokinins to be tested were dissolved in dimethylsulfoxide (DMSO) and the solution brought up to 10^−3M with distilled water. This stock was further diluted in distilled water to concentrations ranging from 10^−8M to 10^−4M.

| SMILES | IC50 [1] [µM] | IC50 (HOS) [µM] | IC50 (promyelocytic HL-60) [µM] | IC50 [2] [µM] | IC50 [3] [µM] | IC50 (mouse fibroblasts NIH3T3) [µM] | Concentration with highest activity [4] | Activity (%) [10^−5 mol · l^−1 BAP = 100%] [4] [%] | Concentration with highest activity [5] | Activity (%) [10^−4 mol · l^−1 BAP = 100%] [5] [%] |
| --- | --- | --- | --- | --- | --- | --- | --- | --- | --- | --- |
| OC[C@H]1O[C@@H](n2cnc3c(NCc4cccc(Cl)c4)nc(Cl)nc32)[C@H](O)[C@@H]1O [R2 = Cl, 3-chlorobenzylamino] | 28 | > 167 | 0.6 | > 167 | 1.1 | > 167 | – | – | – | – |
| COc1cc(CNc2ncnc3c2ncn3[C@@H]2O[C@H](CO)[C@@H](O)[C@H]2O)cc(OC)c1 [3,5-dimethoxyxybenzylamino, 6-(3,5-dimethoxybenzylamino)purine riboside] | > 167 | > 167 | 18.8 | > 167 | – | > 167 | – | – | – | – |
| Nc1nc(NCc2ccc(F)cc2)c2ncn([C@@H]3O[C@H](CO)[C@@H](O)[C@H]3O)c2n1 [R2 = NH2,4-fluorobenzylamino] | 13 | 43 | 2.9 | 25 | 12.1 | > 167 | – | – | – | – |
| OCC1OC(n2cnc3c(NCc4ccccc4F)nc(Cl)nc32)C(O)C1O (centres unmarked) [R2 = Cl, 2-fluorobenzylamino] | 30 | > 167 | 2.5 | > 167 | 4.2 | – | – | – | – | – |
| Nc1nc(NCc2ccccc2Cl)c2ncn(C3OC(CO)C(O)C3O)c2n1 (centres unmarked) [R2 = NH2,2-chlorobenzylamino] | 78 | > 167 | 10.3 | > 167 | 24.7 | > 167 | – | – | – | – |
| OCC1OC(n2cnc3c(NCc4ccc(Cl)cc4)nc(Cl)nc32)C(O)C1O (centres unmarked) [R2 = Cl, 4-chlorobenzylamino] | 15 | > 167 | 5 | > 167 | 5.8 | > 167 | – | – | – | – |
| OCC1OC(n2cnc3c(NCc4ccccc4Cl)nc(Cl)nc32)C(O)C1O (centres unmarked) [R2 = Cl, 2-chlorobenzylamino] | 61 | > 167 | 1.2 | > 167 | 8.5 | > 167 | – | – | – | – |
| O=[N+]([O-])c1ccc(CNc2ncnc3c2ncn3[C@@H]2O[C@H](CO)[C@@H](O)[C@H]2O)cc1 [4-nitrobenzylamino, 6-(4-nitrobenzylamino)purine riboside] | – | – | – | – | – | – | 10^−4 mol · l^−1 | 25 ± 3 | – | – |
| CSc1nc(NCc2ccccc2F)c2ncn([C@@H]3O[C@H](CO)[C@@H](O)[C@H]3O)c2n1 [R2 = SCH3,2-fluorobenzylamino] | 42 | > 167 | 11.4 | > 167 | 9.7 | – | – | – | – | – |
| Nc1nc(NCc2cccc(Cl)c2)c2ncn([C@@H]3O[C@H](CO)[C@@H](O)[C@H]3O)c2n1 [R2 = NH2,3-chlorobenzylamino] | 43 | > 167 | 5.8 | > 167 | 10.2 | > 167 | – | – | – | – |
| COc1ccc(CNc2ncnc3c2ncn3[C@@H]2O[C@H](CO)[C@@H](O)[C@H]2O)c(OC)c1 [2,4-dimethoxybenzylamino, 6-(2,4-dimethoxybenzylamino)purine riboside] | > 167 | > 167 | 39 | > 167 | > 167 | > 167 | 10^−5 mol · l^−1 | 3 ± 3 | – | – |
| Nc1nc(NCc2ccccc2F)c2ncn([C@@H]3O[C@H](CO)[C@@H](O)[C@H]3O)c2n1 [R2 = NH2,2-fluorobenzylamino] | 45 | > 167 | 8.7 | > 167 | 14.5 | – | – | – | – | – |
| OC[C@H]1O[C@@H](n2cnc3c(NCc4ccc(F)cc4)nc(Cl)nc32)[C@H](O)[C@@H]1O [R2 = Cl, 4-fluorobenzylamino] | 5.8 | 19 | 0.7 | 12 | 1.5 | > 167 | – | – | – | – |
| COc1ccc(CNc2ncnc3c2ncn3[C@@H]2O[C@H](CO)[C@@H](O)[C@H]2O)cc1OC [3,4-dimethoxybenzylamino, 6-(3,4-dimethoxybenzylamino)purine riboside] | – | – | – | – | – | – | 10^−4 mol · l^−1 | 2 ± 1 | 10^−4 mol · l^−1 | 47 ± 6 |
| O=[N+]([O-])c1cccc(CNc2ncnc3c2ncn3[C@@H]2O[C@H](CO)[C@@H](O)[C@H]2O)c1 [3-nitrobenzylamino, 6-(3-nitrobenzylamino)purine riboside] | – | – | – | – | – | – | 10^−4 mol · l^−1 | 66 ± 7 | – | – |
| CSc1nc(NCc2cccc(Cl)c2)c2ncn([C@@H]3O[C@H](CO)[C@@H](O)[C@H]3O)c2n1 [R2 = SCH3,3-chlorobenzylamino] | 35 | > 167 | 6.1 | > 167 | 13.2 | > 167 | – | – | – | – |
| OC[C@H]1O[C@@H](n2cnc3c(NCc4ccc(F)c(F)c4F)ncnc32)[C@H](O)[C@@H]1O [2,3,4-trifluorobenzylamino, 6-(2,3,4-trifluorobenzylamino)purine riboside] | > 167 | > 167 | 13 | > 167 | 58.2 | > 167 | – | – | 10^−4 mol · l^−1 | 144 ± 12 |
| CSc1nc(NCc2ccccc2Cl)c2ncn([C@@H]3O[C@H](CO)[C@@H](O)[C@H]3O)c2n1 [R2 = SCH3,2-chlorobenzylamino] | 78 | > 167 | 7.4 | > 167 | 14.6 | > 167 | – | – | – | – |
